Read-outs that look alike come from different tables or passages of the source.
Key:
[1] = system: IL-13 cytokine receptor (JAK1/JAK2, JAK1/TYK2); assay: Human whole blood, IL-13-induced pSTAT6, CD19+ cells; assay type: cell-based
Description: Blood was warmed to 37°C prior to use.
(§1) Anti‐cell surface antibodies were added 15 minutes prior to cytokine stimulation; anti‐CD14‐Pacific Blue (0.5 µL/well) to GM‐CSF, IFNγ, and TPO‐treated samples; anti‐CD3‐BV650 (0.5 µL/well) plus anti‐CD14‐Pacific Blue (0.5 µL/well) to IL‐6‐treated samples; and anti‐CD19‐BV421 (0.5 µL/well) plus anti‐CD14‐AF488 (0.5 µL/well) to IL‐13‐treated samples.
(§2) The lymphocyte population was gated for pSTAT histogram analysis for IFNα‐, IL‐2‐, IL‐3‐, IL‐4‐, IL‐7‐, IL‐10‐, IL‐12‐, IL‐15‐, IL‐21‐, IL‐23‐, and IL‐27‐treated samples; granulocyte population for G‐CSF‐treated samples; CD14^+ cells for GM‐CSF‐, IFNγ‐, and TPO‐treated samples; CD3^+ cells and CD14^+ cells for IL‐6‐treated samples; CD14^+ cells and CD19^+ cells for IL‐13‐treated samples; all events (entire populations) for EPO‐treated cells. Background fluorescence was defined using unstimulated cells and a gate was placed at the foot of the peak to include ~0.5% gated population.
(§3) Histogram statistical analysis was performed using FACSDiva version 8.0.1 (BD Biosciences). Relative fluorescence unit (RFU), which measures the level of pSTAT, was calculated by multiplying the percent positive population and its mean fluorescence. Data from 11 compound concentrations (singlicate at each concentration) were normalized as a percentage of control, as shown in Equation 1:(1) %ofcontrol=100×A−B/C−B
(§4) A, RFU from wells containing compound and cytokine; B, RFU from wells without cytokine (minimum fluorescence); C, RFU from wells containing only cytokine (maximum fluorescence).
(§5) Inhibition curves and IC50 values were determined using Prism software (Version 7, GraphPad).

[2] = system: IL-23 cytokine receptor (JAK2/TYK2); assay: Human whole blood, IL-23-induced pSTAT3, lymphocytes; assay type: cell-based; details: Lymphocyte
Description: Blood was warmed to 37°C prior to use.
(§6) Then, 5 µL of PBS or cytokine was added to each well (5 µL/well; final, 10 U/mL EPO, 100 ng/mL G‐CSF, 10 ng/mL GM‐CSF, 5000 U/mL IFNα, 100 ng/mL IFNγ, 50 ng/mL IL‐2, 50 ng/mL IL‐3, 5 ng/mL IL‐4, 50 ng/mL IL‐6, 30 ng/mL IL‐7, 30 ng/mL IL‐10, 30 ng/mL IL‐12, 30 ng/mL IL‐13, 30 ng/mL IL‐15, 50 ng/mL IL‐21, 25 ng/mL IL‐23, 1000 ng/mL IL‐27) and incubated for 15 minutes. […]
as §2
(§7) Histogram statistical analysis was performed using FACSDiva version 8.0.1 (BD Biosciences). Relative fluorescence unit (RFU), which measures the level of pSTAT, was calculated by multiplying the percent positive population and its mean fluorescence. […]
as §5

[3] = system: TPO cytokine receptor (JAK2/JAK2); assay: Human whole blood, TPO-induced pSTAT5, CD14+ cells; assay type: cell-based; details: Homo sapiens
Description: Blood was warmed to 37°C prior to use.
(§8) Then, 5 µL of PBS or cytokine was added to each well (5 µL/well; final, 10 U/mL EPO, 100 ng/mL G‐CSF, 10 ng/mL GM‐CSF, 5000 U/mL IFNα, 100 ng/mL IFNγ, 50 ng/mL IL‐2, 50 ng/mL IL‐3, 5 ng/mL IL‐4, 50 ng/mL IL‐6, 30 ng/mL IL‐7, 30 ng/mL IL‐10, 30 ng/mL IL‐12, 30 ng/mL IL‐13, 30 ng/mL IL‐15, 50 ng/mL IL‐21, 25 ng/mL IL‐23, 1000 ng/mL IL‐27) and incubated for 15 minutes. Anti‐cell surface antibodies were added 15 minutes prior to cytokine stimulation; anti‐CD14‐Pacific Blue (0.5 µL/well) to GM‐CSF, IFNγ, and TPO‐treated samples; anti‐CD3‐BV650 (0.5 µL/well) plus anti‐CD14‐Pacific Blue (0.5 µL/well) to IL‐6‐treated samples; and anti‐CD19‐BV421 (0.5 µL/well) plus anti‐CD14‐AF488 (0.5 µL/well) to IL‐13‐treated samples.
(§9) One more wash was done with staining buffer and all samples were finally suspended in 150 µL/well of the desired anti‐pSTAT antibodies at 1:150 dilution in staining buffer; anti‐pSTAT1‐AF647 in IFNγ‐treated samples; anti‐pSTAT1‐AF488 and anti‐pSTAT3‐AF647 in IFNα‐, IL‐6‐, and IL‐27‐treated samples; anti‐pSTAT3‐AF647 in G‐CSF‐, IL‐10‐, IL‐21‐, and IL‐23‐treated samples; anti‐pSTAT4‐AF647 in IL‐12‐treated samples; anti‐pSTAT5‐AF647 in EPO‐, GM‐CSF‐, IL‐2‐, IL‐3‐, IL‐7‐, IL‐15‐, and TPO‐treated samples; anti‐pSTAT5‐AF488 and anti‐pSTAT6‐AF647 in IL‐4‐treated samples; and anti‐pSTAT6‐AF647 in IL‐13‐treated samples.
as §2, §3, §4, §5

[4] = system: IL-10 cytokine receptor (JAK1/TYK2); assay: Human whole blood, IL-10-induced pSTAT3, lymphocytes; assay type: cell-based; details: Lymphocyte
Description: Blood was warmed to 37°C prior to use.
as §8, §9, §2, §3, §4, §5

[5] = system: IL-4 cytokine receptor (JAK1/JAK3); assay: Human whole blood, IL-4-induced pSTAT6, lymphocytes; assay type: cell-based; details: Lymphocyte
Description: Blood was warmed to 37°C prior to use.
as §8, §9, §2, §3, §4, §5

[6] = system: IL-12 cytokine receptor (JAK2/TYK2); assay: Human whole blood, IL-12-induced pSTAT4, lymphocytes; assay type: cell-based; details: for IC50: Homo sapiens, Lymphocyte
Description: Blood was warmed to 37°C prior to use.
as §8, §9, §2, §3, §4, §5

[7] = system: IL-6 cytokine receptor (JAK1/JAK2, JAK1/TYK2); assay: Human whole blood, IL-6-induced pSTAT1, CD3+ cells; assay type: cell-based; details: for IC50: Homo sapiens
Description: Blood was warmed to 37°C prior to use.
as §8, §9, §2, §3, §4, §5

[8] = system: IL-6 cytokine receptor (JAK1/JAK2, JAK1/TYK2); assay: Human whole blood, IL-6-induced pSTAT3, CD3+ cells; assay type: cell-based
Description: Blood was warmed to 37°C prior to use.
as §1, §2, §3, §4, §5

[9] = system: GM-CSF cytokine receptor (JAK2/JAK2); assay: Human whole blood, GM-CSF-induced pSTAT5, CD14+ cells; assay type: cell-based; details: Homo sapiens
Description: Blood was warmed to 37°C prior to use.
as §8, §9, §2, §3, §4, §5

[10] = system: IL-21 cytokine receptor (JAK1/JAK3); assay: Human whole blood, IL-21-induced pSTAT3, lymphocytes; assay type: cell-based; details: Lymphocyte
Description: Blood was warmed to 37°C prior to use.
as §8, §9, §2, §3, §4, §5

[11] = human; upadacitinib 15 mg QD; cited from earlier work
[12] = system: IL-13 cytokine receptor (JAK1/JAK2, JAK1/TYK2); assay: Human whole blood, IL-13-induced pSTAT6, CD14+ cells; assay type: cell-based
Description: Blood was warmed to 37°C prior to use.
as §1, §2, §3, §4, §5

[13] = system: IL-3 cytokine receptor (JAK2/JAK2); assay: Human whole blood, IL-3-induced pSTAT5, lymphocytes; assay type: cell-based; details: Homo sapiens, Lymphocyte
Description: Blood was warmed to 37°C prior to use.
as §8, §9, §2, §3, §4, §5

[14] = phase 3 RA studies; cited from earlier work
[15] = system: G-CSF cytokine receptor (JAK1/JAK2); assay: Human whole blood, G-CSF-induced pSTAT3, granulocytes; assay type: cell-based
Description: Blood was warmed to 37°C prior to use.
as §6, §2, §7, §5

[16] = system: IFNα cytokine receptor (JAK1/TYK2); assay: Human whole blood, IFNα-induced pSTAT1, lymphocytes; assay type: cell-based; details: for IC50: Homo sapiens, Lymphocyte
Description: Blood was warmed to 37°C prior to use.
as §8, §9, §2, §3, §4, §5

[17] = system: IL-27 cytokine receptor (JAK1/JAK2, JAK1/TYK2); assay: Human whole blood, IL-27-induced pSTAT3, lymphocytes; assay type: cell-based; details: Lymphocyte
Description: Blood was warmed to 37°C prior to use.
as §8, §9, §2, §3, §4, §5

[18] = system: IFNγ cytokine receptor (JAK1/JAK2); assay: Human whole blood, IFNγ-induced pSTAT1, CD14+ cells; assay type: cell-based; details: for IC50: Homo sapiens
Description: Blood was warmed to 37°C prior to use.
as §8, §9, §2, §3, §4, §5

[19] = system: IFNα cytokine receptor (JAK1/TYK2); assay: Human whole blood, IFNα-induced pSTAT3, lymphocytes; assay type: cell-based; details: Lymphocyte
Description: Blood was warmed to 37°C prior to use.
as §8, §9, §2, §3, §4, §5

[20] = system: IL-6 cytokine receptor (JAK1/JAK2, JAK1/TYK2); assay: Human whole blood, IL-6-induced pSTAT1, CD14+ cells; assay type: cell-based
Description: Blood was warmed to 37°C prior to use.
as §1, §2, §3, §4, §5

[21] = unbound, Cav × fu; upadacitinib 15 mg QD
in vitro = details: both, human, pooled human plasma
CRP = details: RA; upadacitinib 6 mg BID; cited from earlier work
NK cell counts = details: RA; upadacitinib 6 mg BID; week 12; cited from earlier work
[22] = system: IL-4 cytokine receptor (JAK1/JAK3); assay: Human whole blood, IL-4-induced pSTAT5, lymphocytes; assay type: cell-based; details: Lymphocyte
Description: Blood was warmed to 37°C prior to use.
as §6, §2, §7, §5

[23] = system: EPO cytokine receptor (JAK2/JAK2); assay: Human whole blood spiked with CD34+-derived erythroid progenitor cells, EPO-induced pSTAT5; assay type: cell-based; details: for IC50: Homo sapiens, Erythroid progenitor cell
Description: CD34^+ cells were then harvested, washed once with Dulbecco's (D)‐PBS, and suspended at 0.5 x 10^6 cells/mL in human whole blood to be used in the EPO stimulation assay.
Blood was warmed to 37°C prior to use.
Background fluorescence was defined using unstimulated cells and a gate was placed at the foot of the peak to include ~0.5% gated population.
as §3, §4, §5

[24] = system: IL-27 cytokine receptor (JAK1/JAK2, JAK1/TYK2); assay: Human whole blood, IL-27-induced pSTAT1, lymphocytes; assay type: cell-based; details: Lymphocyte
Description: Blood was warmed to 37°C prior to use.
as §1, §2, §3, §4, §5

[25] = system: IL-2 cytokine receptor (JAK1/JAK3); assay: Human whole blood, IL-2-induced pSTAT5, lymphocytes; assay type: cell-based; details: Lymphocyte
Description: Blood was warmed to 37°C prior to use.
as §8, §9, §2, §3, §4, §5

[26] = system: IL-15 cytokine receptor (JAK1/JAK3); assay: Human whole blood, IL-15-induced pSTAT5, lymphocytes; assay type: cell-based; details: for IC50: Homo sapiens, Lymphocyte
Description: Blood was warmed to 37°C prior to use.
as §8, §9, §2, §3, §4, §5

[27] = system: IL-7 cytokine receptor (JAK1/JAK3); assay: Human whole blood, IL-7-induced pSTAT5, lymphocytes; assay type: cell-based; details: Lymphocyte
Description: Blood was warmed to 37°C prior to use.
as §8, §9, §2, §3, §4, §5

## CC[C@@H]1CN(C(=O)NCC(F)(F)F)C[C@@H]1c1cnc2cnc3[nH]ccc3n12 [Upadacitinib]
[1]; read-out: IC50, IL-13, pSTAT6, CD19+ cells
  IC50: 72 nM
[1]; read-out: IC50,u, IL-13, pSTAT6, CD19+ cells
  IC50: 35 nM
[2]; read-out: IC50, IL-23, pSTAT3
  IC50: 242 nM
[2]; read-out: IC50,u, IL-23, pSTAT3
  IC50: 117 nM
[3]; read-out: IC50, TPO, pSTAT5
  IC50: 297 nM
[3]; read-out: IC50,u, TPO, pSTAT5
  IC50: 143 nM
[4]; read-out: IC50, IL-10, pSTAT3
  IC50: 90 nM
[4]; read-out: IC50,u, IL-10, pSTAT3
  IC50: 43 nM
[5]; read-out: IC50, IL-4, pSTAT6
  IC50: 77 nM
[5]; read-out: IC50,u, IL-4, pSTAT6
  IC50: 37 nM
[6]
  LogIC50, IL-12 induced pSTAT4, single experiment: -6.953 log[M]
[6]; read-out: IC50, IL-12, pSTAT4
  IC50: 145 nM
[6]; read-out: IC50, IL-12 induced pSTAT4, single experiment
  IC50: 112 nM
[6]; read-out: IC50,u, IL-12, pSTAT4
  IC50: 70 nM
[7]
  LogIC50, IL-6 induced pSTAT1 (CD3+ cells), single experiment: -7.893 log[M]
[7]; read-out: IC50, IL-6, pSTAT1, CD3+ cells
  IC50: 12 nM
[7]; read-out: IC50, IL-6 induced pSTAT1 (CD3+ cells), single experiment
  IC50: 12.8 nM
[7]; read-out: IC50,u, IL-6, pSTAT1, CD3+ cells
  IC50: 5.9 nM
[8]; read-out: IC50, IL-6, pSTAT3, CD3+ cells
  IC50: 152 nM
[8]; read-out: IC50,u, IL-6, pSTAT3, CD3+ cells
  IC50: 73 nM
[9]; read-out: IC50, GM-CSF, pSTAT5
  IC50: 782 nM
[9]; read-out: IC50,u, GM-CSF, pSTAT5
  IC50: 377 nM
[10]; read-out: IC50, IL-21, pSTAT3
  IC50: 51 nM
[10]; read-out: IC50,u, IL-21, pSTAT3
  IC50: 25 nM
[11]
  Cav: 49 nM
[12]; read-out: IC50, IL-13, pSTAT6, CD14+ cells
  IC50: 126 nM
[12]; read-out: IC50,u, IL-13, pSTAT6, CD14+ cells
  IC50: 61 nM
[13]; read-out: IC50, IL-3, pSTAT5
  IC50: 326 nM
[13]; read-out: IC50,u, IL-3, pSTAT5
  IC50: 158 nM
[14]
  herpes zoster occurrence: reported
[15]; read-out: IC50, G-CSF, pSTAT3
  IC50: 78 nM
[15]; read-out: IC50,u, G-CSF, pSTAT3
  IC50: 38 nM
[16]; Figure S1B, Donor 256, Exp 1
  LogIC50, IFNα induced pSTAT1, single experiment: -7.685 log[M]
[16]; read-out: IC50, IFNα induced pSTAT1, single experiment
  IC50: 20.7 nM
[16]; read-out: IC50, IFNα, pSTAT1
  IC50: 21 nM
[16]; read-out: IC50,u, IFNα, pSTAT1
  IC50: 10 nM
[17]; read-out: IC50, IL-27, pSTAT3
  IC50: 44 nM
[17]; read-out: IC50,u, IL-27, pSTAT3
  IC50: 21 nM
[18]
  LogIC50, IFNγ induced pSTAT1, single experiment: -7.002 log[M]
[18]; read-out: IC50, IFNγ induced pSTAT1, single experiment
  IC50: 99.6 nM
[18]; read-out: IC50, IFNγ, pSTAT1
  IC50: 109 nM
[18]; read-out: IC50,u, IFNγ, pSTAT1
  IC50: 53 nM
[19]; read-out: IC50, IFNα, pSTAT3
  IC50: 19 nM
[19]; read-out: IC50,u, IFNα, pSTAT3
  IC50: 9.2 nM
[20]; read-out: IC50, IL-6, pSTAT1, CD14+ cells
  IC50: 26 nM
[20]; read-out: IC50,u, IL-6, pSTAT1, CD14+ cells
  IC50: 13 nM
[21]
  Cav,u: 27.4 nM
In vitro
  fraction unbound at 6 h, 1 μmol/L: 0.56
CRP
  reduction of CRP levels from baseline to week 12: -8.8 mg/L
NK cell counts
  change from baseline in NK cell counts: approximately −50 cells/mm^3
[22]; read-out: IC50, IL-4, pSTAT5
  IC50: 8.2 nM
[22]; read-out: IC50,u, IL-4, pSTAT5
  IC50: 4 nM
[23]
  LogIC50, EPO induced pSTAT5, single experiment: -6.909 log[M]
[23]; read-out: IC50, EPO induced pSTAT5, single experiment
  IC50: 123 nM
[23]; read-out: IC50, EPO, pSTAT5
  IC50: 174 nM
[23]; read-out: IC50,u, EPO, pSTAT5
  IC50: 84 nM
[24]; read-out: IC50, IL-27, pSTAT1
  IC50: 52 nM
[24]; read-out: IC50,u, IL-27, pSTAT1
  IC50: 25 nM
[25]; read-out: IC50, IL-2, pSTAT5
  IC50: 50 nM
[25]; read-out: IC50,u, IL-2, pSTAT5
  IC50: 24 nM
[26]
  LogIC50, IL-15 induced pSTAT5, single experiment: -7.157 log[M]
[26]; read-out: IC50, IL-15, pSTAT5
  IC50: 64 nM
[26]; read-out: IC50, IL-15 induced pSTAT5, single experiment
  IC50: 69.7 nM
[26]; read-out: IC50,u, IL-15, pSTAT5
  IC50: 31 nM
[27]; read-out: IC50, IL-7, pSTAT5
  IC50: 101 nM
[27]; read-out: IC50,u, IL-7, pSTAT5
  IC50: 49 nM

Source: paper PMC6857076 (Pharmacology Research & Perspectives, 2019)
